Test results as given in patent US10202361B2, “Pyridazinones as herbicides” (E I DU PONT DE NEMOURS AND COMPANY, priority 2014, dated 2019).

How the values were obtained:
Assay in all cases: Test C pre-/postemergence greenhouse herbicide test
Assay type in all cases: in vivo
[1] = tested on: johnsongrass (Sorghum halepense); details: Preemergence; for Plant response rating, Johnsongrass: visual rating on scale 0 (no effect) to 100 (complete control), 13 to 15 d
Excerpt: (§1) Seeds of plant species selected from blackgrass (Alopecurus myosuroides), bromegrass, downy (downy bromegrass, Bromus tectorum), foxtail, green (green foxtail, Setaria viridis), ryegrass, Italian (Italian ryegrass, Lolium multiflorum), wheat (winter wheat, Triticum aestivum), oat, wild (wild oat, Avena fatua), galium (catchweed bedstraw, Galium aparine), bermudagrass (Cynodon dactylon), surinam grass (Brachiaria decumbens), cocklebur (common cocklebur, Xanthium strumarium), corn (Zea mays), crabgrass, large (large crabgrass, Digitaria sanguinalis), cupgrass, woolly (woolly cupgrass, Eriochloa villosa), foxtail, giant (giant foxtail, Setaria faberii), goosegrass (Eleusine indica), johnsongrass (Sorghum halepense), kochia (Kochia scoparia), lambsquarters (Chenopodium album), morningglory (Ipomoea coccinea), nightshade (eastern black nightshade, Solanum ptycanthum), nutsedge, yellow (yellow nutsedge, Cyperus esculentus), pigweed (Amaranthus retroflexus), ragweed (common ragweed, Ambrosia elatior), soybean (Glycine max), sunflower (common oilseed sunflower, Helianthus annuus), Russian thistle (Salsola kali), barnyardgrass (Echinochloa crus-galli), oilseed rape (Brassica napus), waterhemp (common waterhemp, Amaranthus rudis), and velvetleaf (Abutilon theophrasti) were planted into a blend of loam soil and sand and treated preemergence with test chemicals formulated in a non-phytotoxic solvent mixture which included a surfactant.
(§2) At the same time, plants selected from these crop and weed species and also barley (winter barley, Hordeum vulgare), canarygrass (Phalaris minor), windgrass (Apera spica-venti), deadnettle (henbit deadnettle, Lamium amplexicaule), and chickweed (common chickweed, Stellaria media) were planted in pots containing Redi-Earth® planting medium (Scotts Company, 14111 Scottslawn Road, Marysville, Ohio 43041) comprising spaghnum peat moss, vermiculite, wetting agent and starter nutrients and treated with postemergence applications of test chemicals formulated in the same manner. Plants ranged in height from 2 to 18 cm (1- to 4-leaf stage) for postemergence treatments. Treated plants and controls were maintained in a greenhouse for 13 to 15 d, after which time all species were compared to controls and visually evaluated. Plant response ratings, summarized in Table C, are based on a scale of 0 to 100 where 0 is no effect and 100 is complete control. A dash (-) response means no test result.

[2] = tested on: galium (catchweed bedstraw, Galium aparine); details: Preemergence; for Plant response rating, Galium: visual rating on scale 0 (no effect) to 100 (complete control), 13 to 15 d
Excerpt: as §1, §2

[3] = tested on: ragweed (common ragweed, Ambrosia elatior); details: Preemergence; for Plant response rating, Ragweed: visual rating on scale 0 (no effect) to 100 (complete control), 13 to 15 d
Excerpt: as §1, §2

[4] = tested on: crabgrass, Large (large crabgrass, Digitaria sanguinalis); details: Preemergence; for Plant response rating, Crabgrass, Large: visual rating on scale 0 (no effect) to 100 (complete control), 13 to 15 d
Excerpt: as §1, §2

corn (Zea mays) = details: Preemergence; for Plant response rating, Corn: visual rating on scale 0 (no effect) to 100 (complete control), 13 to 15 d
Excerpt: as §1, §2

[5] = tested on: ryegrass, Italian (Italian ryegrass, Lolium multiflorum); details: Preemergence; for Plant response rating, Ryegrass, Italian: visual rating on scale 0 (no effect) to 100 (complete control), 13 to 15 d
Excerpt: as §1, §2

[6] = tested on: oilseed rape (Brassica napus); details: Preemergence; for Plant response rating: Oilseed Rape; for Plant response rating, Oilseed Rape: visual rating on scale 0 (no effect) to 100 (complete control), 13 to 15 d
Excerpt: as §1, §2

[7] = tested on: nutsedge, yellow (yellow nutsedge, Cyperus esculentus); details: Preemergence; for Plant response rating, Nutsedge, Yellow: visual rating on scale 0 (no effect) to 100 (complete control), 13 to 15 d
Excerpt: as §1, §2

[8] = tested on: pigweed (Amaranthus retroflexus); details: Preemergence; for Plant response rating, Pigweed: visual rating on scale 0 (no effect) to 100 (complete control), 13 to 15 d
Excerpt: as §1, §2

In the case of CCOc1cc(=O)n(-c2ccc(F)cc2)nc1C(O)c1ccnc(C(F)(F)F)c1 (stereo not drawn) [Compound 23, 5-ethoxy-2-(4-fluorophenyl)-6-[hydroxy[2-(trifluoromethyl)-4-pyridinyl]methyl]-3(2H)-pyridazinone], the “Plant response rating, Johnsongrass” value ([1]; 8 g ai/ha) is reported as 0, the “Plant response rating, Johnsongrass” value ([1]; 16 g ai/ha) is reported as 5 and the pest or weed control at 31 g/ha ([1]; Sorghum halepense, pre-emergence, Johnsongrass, 31 g ai/ha, read-out: Plant response rating) is reported as 5%. The pest or weed control at 62 g/ha ([1]; Sorghum halepense, pre-emergence, Johnsongrass, 62 g ai/ha, read-out: Plant response rating) was 10%, the “Plant response rating, Galium” value ([2]; 8 g ai/ha) was 85 and the “Plant response rating, Galium” value ([2]; 16 g ai/ha) was 85. The pest or weed control at 31 g/ha ([2]; pre-emergence, Galium, 31 g ai/ha, read-out: Plant response rating) was 90%, the pest or weed control at 62 g/ha ([2]; pre-emergence, Galium, 62 g ai/ha, read-out: Plant response rating) was 95% and the pest or weed control at 31 g/ha ([3]; Ambrosia artemisiifolia, pre-emergence, Ragweed, 31 g ai/ha, read-out: Plant response rating) was 60%. For the same compound, the pest or weed control at 62 g/ha ([3]; Ambrosia artemisiifolia, pre-emergence, Ragweed, 62 g ai/ha, read-out: Plant response rating) was 55%, the “Plant response rating, Ragweed” value ([3]; 8 g ai/ha) was 0 and the “Plant response rating, Ragweed” value ([3]; 16 g ai/ha) was 60. The pest or weed control at 31 g/ha ([4]; Digitaria sanguinalis, pre-emergence, Crabgrass, Large, 31 g ai/ha, read-out: Plant response rating) was 65%, the pest or weed control at 62 g/ha ([4]; Digitaria sanguinalis, pre-emergence, Crabgrass, Large, 62 g ai/ha, read-out: Plant response rating) was 100% and the “Plant response rating, Crabgrass, Large” value ([4]; 8 g ai/ha) was 5. For the same compound, the “Plant response rating, Crabgrass, Large” value ([4]; 16 g ai/ha) was 50, the “Plant response rating, Corn” value (corn (Zea mays); 8 g ai/ha) was 0 and the “Plant response rating, Corn” value (corn (Zea mays); 16 g ai/ha) was 5. The plant injury at 31 g/ha (corn (Zea mays); Zea mays, pre-emergence, Corn, 31 g ai/ha, read-out: Plant response rating) was 5%, the plant injury at 62 g/ha (corn (Zea mays); Zea mays, pre-emergence, Corn, 62 g ai/ha, read-out: Plant response rating) was 15% and the pest or weed control at 31 g/ha ([5]; Lolium multiflorum, pre-emergence, Ryegrass, Italian, 31 g ai/ha, read-out: Plant response rating) was 0%. The pest or weed control at 62 g/ha ([5]; Lolium multiflorum, pre-emergence, Ryegrass, Italian, 62 g ai/ha, read-out: Plant response rating) was 5%, the “Plant response rating, Ryegrass, Italian” value ([5]; 8 g ai/ha) was 0 and the “Plant response rating, Ryegrass, Italian” value ([5]; 16 g ai/ha) was 0. For the same compound, the Plant response rating ([6]; 31 g ai/ha) was 80, the Plant response rating ([6]; 62 g ai/ha) was 85 and the “Plant response rating, Oilseed Rape” value ([6]; 8 g ai/ha) was 5. The “Plant response rating, Oilseed Rape” value ([6]; 16 g ai/ha) was 5, the pest or weed control at 31 g/ha ([7]; Cyperus, pre-emergence, Nutsedge, Yellow, 31 g ai/ha, read-out: Plant response rating) was 0% and the pest or weed control at 62 g/ha ([7]; Cyperus, pre-emergence, Nutsedge, Yellow, 62 g ai/ha, read-out: Plant response rating) was 0%. The “Plant response rating, Nutsedge, Yellow” value ([7]; 8 g ai/ha) was 0, the “Plant response rating, Nutsedge, Yellow” value ([7]; 16 g ai/ha) was 0 and the pest or weed control at 31 g/ha ([8]; Amaranthus retroflexus, pre-emergence, Pigweed, 31 g ai/ha, read-out: Plant response rating) was 100%. For the same compound, the pest or weed control at 62 g/ha ([8]; Amaranthus retroflexus, pre-emergence, Pigweed, 62 g ai/ha, read-out: Plant response rating) was 100%, the “Plant response rating, Pigweed” value ([8]; 8 g ai/ha) was 98 and the “Plant response rating, Pigweed” value ([8]; 16 g ai/ha) was 100.
